{
  "source": "paper PMC10132538",
  "about": "“Regulation of the two-pore domain potassium channel, THIK-1 and THIK-2, by G protein coupled receptors” (PLOS ONE, 2023)",
  "key": {"THIK-1 channel [1]": {"test_system": "THIK-1 channel", "experiment": "Basal current (I0) density of THIK-1 channel at 0 mV in HEK293T cells", "format": "cell-based", "settings": "for Basal current (I0) density of THIK-1 channel: 0 mV, before agonist; for Basal current I0: THIK-1 & M1R", "source_text": "(§1) Coding region of mGu2 (M1-P840) was amplified by conventional PCR with designed primers and the resulting product was subcloned into pEYFP-N1 vector at the BglII and EcoRI sites. The cDNAs for mouse THIK-2 channel and dimeric THIK channels were subcloned into pcDNA3.1(-) vector. To increase the surface membrane expression of the THIK-2 channel, 29 residues (Ser2-Ser30) were removed (ΔN-THIK-2). […] Ci-VSP-IRES-GFP vector was kindly gifted by Dr. Y. Okamura (Osaka University, Osaka, Japan). HEK293T cells or CHO-K1 cells were seeded on glasses and transfected with the plasmid DNAs for THIK channels, receptors and a transfection marker of yellow fluorescent protein (YFP). Electrophysiological experiments were performed 24–72 h after the transfection. […] Pertussis toxin (PTX) was purchased from Wako (Osaka, Japan). […] All reagents were dissolved at high concentration and stored at -20 °C as the stock solutions. The stock reagent solution was diluted at concentrations for the electrophysiological experiments. PTX was solved in the culture medium (final concentration, 300 ng/mL) and cells were incubated in it for more than 16 h. U73122 or U73343 (final concentration, 2 μM each) was dissolved in Hanks’ Balanced Salt Solution (HBSS, Invitrogen, Carlsbad, CA, USA) supplemented with 1 mM Ca^2+ and 0.3 mM Mg^2+. Cells were incubated in HBSS with U73122 or U73343 for 10 min at room temperature before the whole cell current recording.\n(§2) Composition of bath solution was (in mM) 140 NaCl, 4 KCl, 1 CaCl2, 0.3 MgCl2, 10 HEPES (pH 7.4 adjusted with NaOH). The pipette solution for whole cell patch clamp experiments contained (mM) 130 KCl, 5 Na2-ATP, 3 EGTA, 0.1 CaCl2, 10 HEPES, 4 MgCl2, (pH 7.3 adjusted with KOH). GTP (0.3 mM) was supplemented in the pipette solution. Once the whole cell configuration was established, the cell was held at -80mV and ramp pulses (-120mV to +40mV for 0.4 sec) were applied every 5 sec. Various concentrations of the agonists were applied using a fast perfusion system (VC77SP, Warner Instruments, Hamden, CT, USA). The PKC inhibitor chelerythrine was included in the pipette solution.\n(§3) The amplitude of the THIK-1 channel current at 0 mV was measured from every trace induced by the ramp pulse protocol to minimize the fraction of non-selective cationic leak current. The current amplitude before the agonist application was set as the basal current amplitude (I0). The effects of GPCRs on the THIK-1 channel were evaluated as the ratio of the current amplitude after the agonist application to I0 (Iagonist/I0). The EC50 values were estimated by fitting the concentration response curve to a Hill equation (Origin2016; OriginLab, Northampton, MA, USA). […] The effects of A2aR on the Gi/o-R-induced current increase of the THIK-1 channel was estimated as follows. […] All data are shown as means and S.D. The statistical significance between two or more than two groups was estimated by unpaired Student’s t-test or by a one-way analysis of variance (ANOVA) followed by Tukey’s test, respectively. […] Values of p≤ 0.05 were considered as statistically significant (***:p≤0.001, **:0.001<p≤0.01, *:0.01<p≤0.05, n.s.:p>0.05)."}, "[2]": {"biological_target": "T1, M1R-YFP / ΔN-THIK-2 channel (Homo sapiens, UniProt P11229)", "T1 construct": "expressed in transfected cells; host or cells: CHO-K1", "T1 sequence (P11229 1-460)": "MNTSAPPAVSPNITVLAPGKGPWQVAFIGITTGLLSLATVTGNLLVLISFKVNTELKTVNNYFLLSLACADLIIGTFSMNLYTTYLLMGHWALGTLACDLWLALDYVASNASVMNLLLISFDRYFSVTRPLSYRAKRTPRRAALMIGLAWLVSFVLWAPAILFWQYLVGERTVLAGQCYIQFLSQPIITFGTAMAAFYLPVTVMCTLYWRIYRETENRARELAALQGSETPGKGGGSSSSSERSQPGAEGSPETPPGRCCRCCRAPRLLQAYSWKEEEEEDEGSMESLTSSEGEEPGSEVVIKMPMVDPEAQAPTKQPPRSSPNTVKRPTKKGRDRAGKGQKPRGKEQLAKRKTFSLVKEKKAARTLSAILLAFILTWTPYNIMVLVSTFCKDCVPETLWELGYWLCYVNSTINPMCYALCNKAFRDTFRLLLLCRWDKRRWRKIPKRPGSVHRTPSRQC", "experiment": "M1R-YFP-induced increase of ΔN-THIK-2 channel current in CHO-K1 cells", "format": "cell-based, mouse", "settings": "oxo-M 10 μM", "source_text": "as §1, with “Cells were incubated in HBSS with U73122 or U73343 for 10 min at room temperature before the whole cell current recording.” left out"}, "M1R": {"biological_target": "T2, M1R (Homo sapiens, UniProt P11229)", "T2 construct": "expressed in transfected cells; host or cells: HEK293T", "T2 sequence (P11229 1-460)": "T1 sequence (P11229 1-460)", "experiment": "M1R-induced increase of THIK-1 channel current, whole cell patch clamp in HEK293T cells", "format": "cell-based", "settings": "for Ioxo/I0: oxo-M 10 μM", "source_text": "as §1, §2, §3"}, "M2R": {"biological_target": "T3, M2R (Homo sapiens, UniProt P08172)", "T3 construct": "expressed in transfected cells; host or cells: HEK293T", "T3 sequence (P08172 1-466)": "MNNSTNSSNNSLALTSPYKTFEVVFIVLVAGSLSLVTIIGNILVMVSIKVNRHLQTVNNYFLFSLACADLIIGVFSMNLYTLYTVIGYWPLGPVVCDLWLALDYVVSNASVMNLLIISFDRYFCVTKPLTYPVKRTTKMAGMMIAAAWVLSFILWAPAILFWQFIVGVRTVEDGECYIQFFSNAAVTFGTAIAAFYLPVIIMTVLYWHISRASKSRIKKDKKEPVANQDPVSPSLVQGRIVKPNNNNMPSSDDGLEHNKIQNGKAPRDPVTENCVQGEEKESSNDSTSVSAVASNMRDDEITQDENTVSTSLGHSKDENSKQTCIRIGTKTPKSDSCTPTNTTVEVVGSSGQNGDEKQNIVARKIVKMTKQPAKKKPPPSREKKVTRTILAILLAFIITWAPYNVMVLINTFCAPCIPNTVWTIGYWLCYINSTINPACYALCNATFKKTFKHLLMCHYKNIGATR", "experiment": "M2R-induced increase of THIK-1 channel current, whole cell patch clamp in HEK293T cells", "format": "cell-based", "source_text": "as §1, with “PTX was solved in the culture medium (final concentration, 300 ng/mL) and cells were incubated in it for more than 16 h. U73122 or U73343 (final concentration, 2 μM each) was dissolved in Hanks’ Balanced Salt Solution (HBSS, Invitrogen, Carlsbad, CA, USA) supplemented with 1 mM Ca^2+ and 0.3 mM Mg^2+. Cells were incubated in HBSS with U73122 or U73343 for 10 min at room temperature before the whole cell current recording.” left out\n(§4) The amplitude of the THIK-1 channel current at 0 mV was measured from every trace induced by the ramp pulse protocol to minimize the fraction of non-selective cationic leak current. […] The effects of GPCRs on the THIK-1 channel were evaluated as the ratio of the current amplitude after the agonist application to I0 (Iagonist/I0). […]"}, "[3]": {"test_system": "endogenously expressed channels in HEK293T cells", "experiment": "Effect of receptor stimulation on the endogenous current in HEK293T cells without THIK-1", "format": "cell-based", "settings": "no THIK-1", "source_text": "The amplitude of the current increase at the 15th trace (ΔI15th) after the application of GABA or oxo-M were normalized to that at the 5th traces (ΔI5th) with or without additional activation of A2aR (ΔI15th/ΔI5th).\nThe current density at 0 mV (I0) in HEK293T cell transfected with indicated receptors and the effects of the receptor stimulation are shown as Mean and S.D."}, "M3R": {"biological_target": "T4, M3R (Homo sapiens, UniProt P20309)", "T4 construct": "expressed in transfected cells; host or cells: HEK293T", "T4 sequence (P20309 whole entry)": "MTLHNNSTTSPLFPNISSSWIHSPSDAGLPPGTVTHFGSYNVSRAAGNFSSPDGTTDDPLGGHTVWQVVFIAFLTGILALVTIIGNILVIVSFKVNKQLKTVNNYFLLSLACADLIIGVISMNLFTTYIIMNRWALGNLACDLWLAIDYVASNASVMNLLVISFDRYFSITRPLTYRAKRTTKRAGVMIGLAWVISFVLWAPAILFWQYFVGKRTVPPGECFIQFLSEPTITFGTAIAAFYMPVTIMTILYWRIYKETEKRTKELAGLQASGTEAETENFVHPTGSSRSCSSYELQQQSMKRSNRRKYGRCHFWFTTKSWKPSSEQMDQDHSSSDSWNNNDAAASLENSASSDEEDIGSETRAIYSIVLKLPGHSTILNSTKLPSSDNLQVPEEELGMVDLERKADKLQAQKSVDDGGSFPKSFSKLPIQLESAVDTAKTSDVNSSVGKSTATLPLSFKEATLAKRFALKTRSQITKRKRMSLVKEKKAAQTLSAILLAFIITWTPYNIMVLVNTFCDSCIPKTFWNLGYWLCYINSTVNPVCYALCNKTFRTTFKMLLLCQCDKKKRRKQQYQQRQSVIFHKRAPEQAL", "experiment": "M3R-induced increase of THIK-1 channel current, whole cell patch clamp in HEK293T cells", "format": "cell-based", "source_text": "as §1, with “PTX was solved in the culture medium (final concentration, 300 ng/mL) and cells were incubated in it for more than 16 h. U73122 or U73343 (final concentration, 2 μM each) was dissolved in Hanks’ Balanced Salt Solution (HBSS, Invitrogen, Carlsbad, CA, USA) supplemented with 1 mM Ca^2+ and 0.3 mM Mg^2+. Cells were incubated in HBSS with U73122 or U73343 for 10 min at room temperature before the whole cell current recording.” left out\nas §4"}, "THIK-1 channel [4]": {"test_system": "THIK-1 channel", "set-up": "method as in PMID 24081450", "settings": "cited from earlier work"}, "THIK-1 channel [5]": {"test_system": "THIK-1 channel", "set-up": "method as in PMID 34928298", "settings": "cited from earlier work"}, "[6]": {"settings": "chelerythrine 3 μM in pipette solution"}, "[7]": {"settings": "chelerythrine 10 μM in pipette solution"}, "[8]": {"settings": "chelerythrine 30 μM in pipette solution"}, "[9]": {"settings": "concentration response of THIK-1 current increase"}, "[10]": {"settings": "concentration response of THIK-1 current increase (Iagonist/I0), Hill fit"}},
  "note": "Read-outs that look alike come from different tables or passages of the source.",
  "data": [
    {"compound": "COc1ccc2c(c1)CC[C@@H]1[C@@H]2CC[C@]2(C)[C@@H](NCCCCCCN3C(=O)CCC3=O)CC[C@@H]12", "note": "[U73343]", "values": [
      {"measurement": "Basal current (I0) density of THIK-1 channel", "setting": "THIK-1 channel [1]; THIK-1 + M1R, PLC reagent 2 μM 10 min", "value": "46.5 ± 22.3 (10)^n.s pA/pF"},
      {"measurement": "Basal current (I0) density of THIK-1 channel", "setting": "THIK-1 channel [1]; THIK-1 + M3R, PLC reagent 2 μM 10 min", "value": "113.3 ± 122.1 (7)^n.s pA/pF"},
      {"measurement": "Basal current (I0) density of THIK-1 channel", "setting": "THIK-1 channel [1]; THIK-1 + mGlu1, PLC reagent 2 μM 10 min", "value": "121.0 ± 104.7 (12)^n.s pA/pF"},
      {"measurement": "effect of M1R-YFP on ΔN-THIK-2 channel after PLC reagent", "setting": "[2]", "value": "not"}
    ]},
    {"compound": "COc1ccc2c(c[n+](C)c3c4cc5c(cc4ccc23)OCO5)c1OC", "note": "[chelerythrine, Chelerythrine]", "values": [
      {"measurement": "Basal current I0", "setting": "THIK-1 channel [1]; [6]", "value": "43.1 ± 46.8 ^n.s. pA/pF"},
      {"measurement": "Basal current I0", "setting": "THIK-1 channel [1]; [7]", "value": "56.4 ± 46.7 ^n.s. pA/pF"},
      {"measurement": "Basal current I0", "setting": "THIK-1 channel [1]; [8]", "value": "22.8 ± 15.5 ^n.s. pA/pF"},
      {"measurement": "effect of PKC inhibitor on the effect of M1R", "setting": "M1R; 3–30 μM in the pipette solution", "value": "did not inhibit the effect of M1R"},
      {"measurement": "Ioxo/I0", "setting": "M1R; [6]", "value": "4.4 ± 2.4 ^n.s."},
      {"measurement": "Ioxo/I0", "setting": "M1R; [7]", "value": "2.2 ± 0.6 ^n.s."},
      {"measurement": "Ioxo/I0", "setting": "M1R; [8]", "value": "2.7 ± 1.0 ^n.s."}
    ]},
    {"compound": "C[N+](C)(C)CC#CCN1CCCC1=O", "note": "[oxo-M, oxotremorine-M]", "values": [
      {"measurement": "n; Hill coefficient", "setting": "M2R; [9]", "value": "1.54 ± 0.37"},
      {"measurement": "EC50", "setting": "M2R; [10]", "value": "62700 ± 35800", "unit": "nM"},
      {"measurement": "Effect of agonist (Iagonist/I0)", "setting": "[3]; HEK293T transfected with M1R", "value": "0.95 ± 0.15"},
      {"measurement": "Effect of agonist (Iagonist/I0)", "setting": "[3]; HEK293T transfected with M2R", "value": "0.97 ± 0.12"},
      {"measurement": "Effect of agonist (Iagonist/I0)", "setting": "[3]; HEK293T transfected with M3R", "value": "1.01 ± 0.13"},
      {"measurement": "n; Hill coefficient", "setting": "M3R; [9]", "value": "1.07 ± 0.43"},
      {"measurement": "EC50", "setting": "M3R; [10]", "value": "400 ± 310", "unit": "nM"},
      {"measurement": "EC50", "setting": "M1R; concentration response of THIK-1 current increase (Iagonist/I0), Hill fit, HEK293T", "value": "270 ± 160", "unit": "nM"},
      {"measurement": "n; Hill coefficient", "setting": "M1R; concentration response of THIK-1 current increase, HEK293T", "value": "1.14 ± 0.22"},
      {"measurement": "Ioxo/I0", "setting": "M1R; chelerythrine 0 μM (control of Table 3)", "value": "2.8 ± 1.1"}
    ]},
    {"compound": "CCCCCCCCCCCCCC(=O)O[C@@H]1[C@@H](C)[C@@]2(O)[C@@H](C=C(CO)C[C@]3(O)C(=O)C(C)=C[C@@H]23)[C@@H]2C(C)(C)[C@]12OC(C)=O", "note": "[phorbol myristate acetate]", "values": [
      {"measurement": "activation of the THIK-1 channel", "setting": "THIK-1 channel [4]", "value": "did not activate"}
    ]},
    {"compound": "phosphatidyl inositol bisphosphate [PIP2]", "values": [
      {"measurement": "activation of the THIK-1 channel", "setting": "THIK-1 channel [5]", "value": "directly activate"}
    ]}
  ]
}
